As a reminder, the AC50 is the concentration giving half of the maximal activity seen. One may read the EC50 as the concentration needed to bring the measured effect to its halfway point.

For data set [1], the target named is Cytochrome P450 2C19 (Homo sapiens, UniProt P33261). Nature of the data set: Cytochrome panel assay with activity outcomes. Panel member name: p450-cyp2c19 Compounds with AC50 equal or less than 10 uM are considered active. The format is functional.
The target in data set [2] is T1, Cytochrome P450 1A2 (Homo sapiens, UniProt P05177).
T1 sequence (P05177 whole entry): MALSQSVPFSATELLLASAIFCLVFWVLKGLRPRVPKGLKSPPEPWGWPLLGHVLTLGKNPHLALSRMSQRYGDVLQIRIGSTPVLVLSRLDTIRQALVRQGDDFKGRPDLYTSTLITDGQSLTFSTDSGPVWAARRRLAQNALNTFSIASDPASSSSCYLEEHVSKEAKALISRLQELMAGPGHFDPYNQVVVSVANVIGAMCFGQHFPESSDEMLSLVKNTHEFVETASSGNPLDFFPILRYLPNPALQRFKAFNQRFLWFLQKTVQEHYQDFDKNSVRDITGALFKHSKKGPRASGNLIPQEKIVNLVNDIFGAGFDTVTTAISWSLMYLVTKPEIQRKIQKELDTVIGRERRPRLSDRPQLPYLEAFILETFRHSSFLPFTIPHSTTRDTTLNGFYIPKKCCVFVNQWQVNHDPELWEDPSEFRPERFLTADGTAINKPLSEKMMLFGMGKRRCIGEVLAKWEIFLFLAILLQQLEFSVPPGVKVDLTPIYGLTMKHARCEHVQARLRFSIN

The target in data set [3] is Cytochrome P450 2D6 (Homo sapiens, UniProt P10635).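 Note: CYP2D6 member of a cytochrome P450 panel assay.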
Chain of Cytochrome P450 2D6 (P10635 whole entry): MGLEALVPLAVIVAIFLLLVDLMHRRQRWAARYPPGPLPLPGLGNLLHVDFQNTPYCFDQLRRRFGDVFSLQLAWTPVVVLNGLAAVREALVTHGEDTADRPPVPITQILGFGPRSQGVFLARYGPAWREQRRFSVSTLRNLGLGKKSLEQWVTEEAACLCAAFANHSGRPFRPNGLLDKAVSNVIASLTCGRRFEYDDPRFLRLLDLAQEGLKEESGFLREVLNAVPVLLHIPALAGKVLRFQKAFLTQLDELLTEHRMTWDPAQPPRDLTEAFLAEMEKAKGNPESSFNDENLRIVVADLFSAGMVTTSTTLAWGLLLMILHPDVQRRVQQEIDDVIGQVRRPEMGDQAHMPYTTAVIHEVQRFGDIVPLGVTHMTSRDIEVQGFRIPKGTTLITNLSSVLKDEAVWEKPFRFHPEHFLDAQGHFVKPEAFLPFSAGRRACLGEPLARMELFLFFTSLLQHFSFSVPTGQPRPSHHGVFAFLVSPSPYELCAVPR
In data set [4] the target is Cytochrome P450 3A4 (Homo sapiens, UniProt P08684).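 Note: CYP3A4 tested as one member of a cytochrome P450 panel screen.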
Chain of Cytochrome P450 3A4 (P08684 whole entry): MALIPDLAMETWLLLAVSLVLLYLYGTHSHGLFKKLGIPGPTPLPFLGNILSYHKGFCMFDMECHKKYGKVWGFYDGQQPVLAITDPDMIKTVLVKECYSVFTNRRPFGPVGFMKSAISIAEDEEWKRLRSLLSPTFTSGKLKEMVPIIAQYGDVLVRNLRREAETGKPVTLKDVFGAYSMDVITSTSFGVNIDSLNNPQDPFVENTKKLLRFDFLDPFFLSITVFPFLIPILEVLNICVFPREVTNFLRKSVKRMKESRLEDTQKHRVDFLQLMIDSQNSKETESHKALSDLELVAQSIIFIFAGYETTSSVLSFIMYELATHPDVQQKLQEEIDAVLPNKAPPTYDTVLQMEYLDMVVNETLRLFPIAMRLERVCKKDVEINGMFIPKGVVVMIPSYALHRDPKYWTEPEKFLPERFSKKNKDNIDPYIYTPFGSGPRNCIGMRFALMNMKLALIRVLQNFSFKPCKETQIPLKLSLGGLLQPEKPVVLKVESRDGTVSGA
Data set [5] addresses Cytochrome P450 2C9 (Homo sapiens, UniProt P11712).
In data set [6] the target is T2, Heat shock factor protein 1 (Mus musculus, UniProt P38532).
T2 sequence (P38532 whole entry): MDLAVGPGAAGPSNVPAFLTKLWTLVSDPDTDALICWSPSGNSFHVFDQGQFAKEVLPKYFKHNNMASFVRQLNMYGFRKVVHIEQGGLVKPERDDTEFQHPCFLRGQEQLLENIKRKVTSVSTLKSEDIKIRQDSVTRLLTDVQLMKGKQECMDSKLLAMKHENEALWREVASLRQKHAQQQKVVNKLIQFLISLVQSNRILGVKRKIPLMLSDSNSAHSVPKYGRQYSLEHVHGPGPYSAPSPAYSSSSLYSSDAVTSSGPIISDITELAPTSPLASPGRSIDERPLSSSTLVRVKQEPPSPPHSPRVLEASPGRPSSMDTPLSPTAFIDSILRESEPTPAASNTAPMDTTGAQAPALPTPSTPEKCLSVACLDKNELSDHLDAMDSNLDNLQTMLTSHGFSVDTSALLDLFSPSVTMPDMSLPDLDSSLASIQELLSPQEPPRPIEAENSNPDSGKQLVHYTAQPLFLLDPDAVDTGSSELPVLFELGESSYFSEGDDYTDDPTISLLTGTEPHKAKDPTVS
The data set is described as follows: decrease of HSF1-responsive luciferase luminescence – cell-based, NIH3T3, dose retest, confirmation (AID 2382).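 Note: NIH3T3 fibroblasts with HSF1-driven luciferase reporter stressed by proteasome inhibitor MG132; luminescence from HSF1-driven luciferase expression after 8 hours of MG132 stress.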 The format is functional.

Structures are written as SMILES. Active and inactive are the calls of the source. Some results are limits rather than exact numbers.

Chain of Cytochrome P450 2C9 (P11712 whole entry): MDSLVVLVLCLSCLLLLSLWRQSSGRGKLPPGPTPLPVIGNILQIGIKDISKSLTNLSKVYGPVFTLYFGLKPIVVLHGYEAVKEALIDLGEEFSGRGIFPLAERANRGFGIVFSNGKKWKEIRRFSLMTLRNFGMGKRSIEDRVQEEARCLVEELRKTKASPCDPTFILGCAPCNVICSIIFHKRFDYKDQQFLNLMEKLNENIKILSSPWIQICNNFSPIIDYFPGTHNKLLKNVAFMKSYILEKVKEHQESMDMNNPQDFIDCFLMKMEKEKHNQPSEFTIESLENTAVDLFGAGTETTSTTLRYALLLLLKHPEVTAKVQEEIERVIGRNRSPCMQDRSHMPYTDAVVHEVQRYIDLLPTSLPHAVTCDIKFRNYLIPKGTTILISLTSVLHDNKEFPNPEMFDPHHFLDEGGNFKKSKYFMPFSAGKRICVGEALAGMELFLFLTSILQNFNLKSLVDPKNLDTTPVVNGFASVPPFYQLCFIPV
Chain of Cytochrome P450 2C19 (P33261 whole entry): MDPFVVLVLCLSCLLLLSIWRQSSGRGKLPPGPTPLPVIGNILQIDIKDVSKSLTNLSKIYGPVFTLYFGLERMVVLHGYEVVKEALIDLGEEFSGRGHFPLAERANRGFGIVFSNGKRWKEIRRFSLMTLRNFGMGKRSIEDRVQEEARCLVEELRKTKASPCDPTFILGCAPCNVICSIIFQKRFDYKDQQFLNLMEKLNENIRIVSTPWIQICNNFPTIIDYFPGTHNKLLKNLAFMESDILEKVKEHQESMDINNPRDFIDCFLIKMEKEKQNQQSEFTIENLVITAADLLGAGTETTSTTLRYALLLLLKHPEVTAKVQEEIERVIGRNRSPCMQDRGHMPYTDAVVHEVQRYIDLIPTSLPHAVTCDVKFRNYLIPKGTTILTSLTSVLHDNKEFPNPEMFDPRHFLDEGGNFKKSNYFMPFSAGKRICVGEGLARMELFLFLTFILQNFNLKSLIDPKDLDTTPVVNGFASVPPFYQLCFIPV

As for `c1cncc(CNc2nc(-c3cccnc3)nc3ccccc23)c1`, the AC50 is 39.8 µM (inconclusive) in data set [1] (read-out: AC50), 0.316 µM (active) in data set [2] and 20 µM (inconclusive) in data set [3].
In the case of `CCNc1ncc2nc(C)c(=O)n(C)c2n1`, in data set [3], the AC50 was 39.8 µM (inconclusive).
Turning to `COc1ccc(/C=N\c2c(O)ccc3ccccc23)cc1OC`, the AC50 was 5.01 µM (inconclusive) in data set [1] (read-out: AC50) and 6.31 µM (inconclusive) in data set [4].
Consider `O=C(C[C@@H](c1ccccc1)N1CCCCC1)c1ccccc1`, for which the AC50 in data set [5] was 3.16 µM (inconclusive).
Turning to `O=C(CC1CCCCC1)N1CCC(c2nc(-c3ccc(S(=O)(=O)N4CCCC4)cc3)no2)CC1`, the half-maximal activity concentration (AC50) in data set [4] was 14.1 µM (inconclusive).
With `COc1ccc(-c2nc3cnc(N4CCNCC4)nc3n(CCc3ccccc3)c2=O)cc1`, the AC50 in data set [1] (read-out: AC50) is 39.8 µM (inconclusive); in data set [4], 20 µM (inconclusive); in data set [2], 15.8 µM (inconclusive); in data set [3], 15.8 µM (inconclusive).
Turning to `O=C(Nc1ccc(Cl)cc1)C1CCCN1C(=O)NCc1ccccc1` (stereo not given), the 50% effective concentration (EC50) in data set [6] is > 195 µM (not active).
As for `C[C@@H](C(=O)O)[C@@H]1C[C@@]1(C)[C@@H](NC(=O)OCc1ccccc1)c1ccccc1`, the AC50 in data set [4] is 15.8 µM (inconclusive).
For `COc1ccc(O[C@H]2C=C[C@@H](c3ccccc3)O[C@H]2COC(=O)CC/C(C)=N/OCC[C@@H]2C=C[C@H](OC(C)=O)[C@H](COC(C)=O)O2)cc1`, the AC50 in data set [3] was 0.794 µM (inconclusive).
For `Cc1cc(NC(=O)Cn2ccc([N+](=O)[O-])n2)no1`, the EC50 in data set [6] is > 195 µM (not active).
Still for that read-out and setting: the result for `Cc1cc(=O)oc2c(C)c(OC(C)C(=O)NCCCN3CCOCC3)ccc12` (stereo not given) reads > 195 µM (not active).
Consider `C[C@@H](C(=O)O)[C@H]1C[C@]1(C)[C@H](NC(=O)OCc1ccccc1)c1ccccc1`, for which the AC50 in data set [4] was 12.6 µM (inconclusive).
Turning to `O=C(O)/C=C\C(=O)Nc1ccc2c(c1)-c1ccccc1C2`, the values for the AC50 in data set [4] and in data set [2] were 3.98 µM (inconclusive) and 1 µM (inconclusive), respectively.
For the molecule `COc1cc(/C=C/C(=O)Nc2ccccc2C(F)(F)F)cc(OC)c1OC`, the AC50 was 17.8 µM (inconclusive) in data set [1] (read-out: AC50), 14.1 µM (inconclusive) in data set [4] and 28.2 µM (inconclusive) in data set [2].
On to `CCc1ccc(N/C(SCc2ccccc2C)=C(/C#N)C(=O)NCc2ccco2)cc1`, for which the AC50 in data set [2] was 7.08 µM (inconclusive); in data set [3], 15.8 µM (inconclusive).
In the same order, the values of `COC(=O)N1CCC2(CCN(C(=O)Nc3ccc(OC)cc3)CC2)CC1` are 25.1 µM (inconclusive) and 39.8 µM (inconclusive).
On to `O=C(NNS(=O)(=O)c1ccc(Cl)cc1)c1cnn(-c2ccccc2)c1-n1cccc1`, for which the AC50 in data set [4] is 25.1 µM (inconclusive).
For `CC(C)OC(=O)c1nnn(-c2nonc2N)c1CSc1ccccn1`, the AC50 in data set [3] is 15.8 µM (inconclusive).
With `Cn1cccc1C(=O)N1CCC[C@@]2(CCN(C(=O)Nc3cccc(C#N)c3)C2)C1`, in data set [4], the AC50 is 25.1 µM (inconclusive).
As to `c1ccc(CN2CCCC3(CCNCC3)C2)cc1`, the AC50 in data set [3] is 12.6 µM (inconclusive).
`CC(C)c1ccc2oc(=O)cc(CN3CCCCC3)c2c1`: the EC50 in data set [6] is > 195 µM (not active).
As to `CCCc1nc2sc3ccccc3c(=O)c2c(=O)n1CCOC`, the AC50 in data set [1] (read-out: AC50) was 39.8 µM (inconclusive); in data set [4], 35.5 µM (inconclusive).
Take `CCc1nnc(NC(=O)CSc2nc(C)c3c(c2C#N)CCCC3)s1`: the EC50 in data set [6] is reported as > 195 µM (not active).
On to `CCN(CC)C[C@@H](O)c1ccc2ccc3ccccc3c2c1`, for which the AC50 in data set [3] is 3.16 µM (inconclusive).
On to `COc1cccc(-c2ccc3ncnc(NC4CCNCC4)c3c2)c1`, for which the AC50 in data set [4] was 31.6 µM (inconclusive).
Consider `Cc1ccc(-c2nc3ccccc3s2)cc1NC(=S)NC(=O)c1ccccc1`, for which the AC50 in data set [1] (read-out: AC50) is 22.4 µM (inconclusive); in data set [4], 14.1 µM (inconclusive); in data set [2], 15.8 µM (inconclusive).
For `CCCCN(C(=O)NC(=O)Nc1ccccc1OCC)S(C)(=O)=O`, the AC50 in data set [5] is 8.91 µM (inconclusive).
On to `Fc1ccc(-n2cc(CNCCc3ccccn3)c(-c3ccccc3Cl)n2)cc1`, for which the concentration giving a half-maximal response (EC50) in data set [6] is listed as > 195 µM (not active).
In the case of `CC(C)C[C@H]1C(=O)N2CCC[C@@H]2[C@]2(O)O[C@](NC(=O)[C@@H]3C=C4c5cccc6[nH]c(Br)c(c56)C[C@H]4N(C)C3)(C(C)C)C(=O)N12`, the AC50 in data set [5] was 10 µM (inconclusive).
Regarding `CCC(=O)N(CCC(c1ccco1)c1ccccc1OC)Cc1cccs1` (stereo not given), the EC50 in data set [6] is > 195 µM (not active).
For `CC(=O)OC[C@@H]1O[C@H](C/C=N\OC[C@@H](C)[C@H](OCc2ccccc2)C(C)C)C=C[C@@H]1OC(C)=O`, in data set [5], the AC50 is 6.31 µM (inconclusive).
Turning to `COC(=O)[C@@]1(Cc2ccc(F)cc2)[C@H]2c3cc(C(=O)N(C)C)n(Cc4ccc(C(F)(F)F)nc4)c3C[C@H]2CN1C(=O)c1ccccc1`, the AC50 in data set [3] was 20 µM (inconclusive).
`COc1ccc(-c2nn(-c3ccccc3)cc2/C=C(\CC(=O)O)c2nc3ccccc3s2)cc1OC`: the EC50 in data set [6] is on record as > 195 µM (not active).
Consider `CC(C)(C)N(NC(=O)c1ccccc1)C(=O)c1cccc(C(=O)N(NC(=O)c2ccccc2)C(C)(C)C)c1`, for which the AC50 entry in data set [1] was “inconclusive”; in data set [4], 3.98 µM (inconclusive).
On to `c1ccc(CNc2ncncc2-c2cccnc2)cc1`, for which the half-maximal activity concentration (AC50) in data set [3] was 39.8 µM (inconclusive).
Take `O=C(CC(Nc1ccccc1Cl)C(=O)OCC(=O)c1cccs1)c1ccccc1` (stereo not given): the EC50 in data set [6] is 0.847 µM (active).
Turning to `O=C(CSc1nnc(COc2ccccc2)n1-c1ccccc1)c1ccccc1`, the AC50 in data set [2] was 28.2 µM (inconclusive); in data set [3] it was 31.6 µM (inconclusive).
With `O=C(Nc1ccc(F)cc1F)c1cc2nc3c(c(C(F)(F)F)n2n1)CCCC3`, in data set [6], the concentration for a half-maximal effect (EC50) is < 0.16 µM (active).
As for `COc1cccc(Nc2ncc3nc(CCc4ccccc4)c(=O)n(C4CC4)c3n2)c1`, the AC50 in data set [4] was 10 µM (inconclusive); in data set [2] it was 5.01 µM (inconclusive).
With `CN1CCN(c2ncncc2-c2ccoc2)CC1`, the AC50 result in data set [1] was “inconclusive”; in data set [2] it was 31.6 µM (inconclusive); in data set [3] it was 31.6 µM (inconclusive).
Turning to `O=C(c1csnn1)N1CCC2(CC1)CN(c1cccc(-c3ccccc3)c1)C2`, the AC50 in data set [4] was 39.8 µM (inconclusive); in data set [3], 10 µM (inconclusive).
Consider `COC(=O)[C@@]1(Cc2ccc(F)cc2)[C@H]2c3cc(C(=O)N(C)C)n(Cc4ccc(C)o4)c3C[C@H]2CN1C(=O)c1ccccc1`, for which the AC50 in data set [3] is 39.8 µM (inconclusive).
Take `O=C(CCN1C(=O)/C(=C/c2ccc(F)cc2)SC1=S)NCCCn1ccnc1`: the EC50 in data set [6] is given as > 195 µM (not active).
On to `CCN(Cc1ccccc1)S(=O)(=O)c1ccc(F)cc1`, for which the EC50 in data set [6] was > 195 µM (not active).
As to `C[C@@H](C(=O)NCc1nc2ccccc2[nH]1)[C@@H]1C[C@@]1(C)[C@@H](NC(=O)OCc1ccccc1)c1ccccc1`, the half-maximal activity concentration (AC50) in data set [2] is 12.6 µM (inconclusive); in data set [3], 15.8 µM (inconclusive).
Turning to `CC(NC(=O)Cn1cnc([N+](=O)[O-])n1)c1ccccc1` (stereo not given), the AC50 in data set [5] was 35.5 µM (inconclusive).
Regarding `Cn1cc(/C=N/n2cnc3scc(-c4ccccc4)c3c2=O)c2ccccc21`, in data set [4], the AC50 is 3.98 µM (inconclusive).
In the case of `O=C(CN1CCN(Cc2ccccc2)CC1)N/N=C\C=C/c1ccco1`, in data set [6], the EC50 is > 195 µM (not active).
On to `Cc1oc(/C=N/NC(=O)CC2(C)OCCO2)cc1Br`, for which the EC50 in data set [6] was > 195 µM (not active).
With `O=C(N/N=C(\c1ccccc1)c1cccnc1)C(O)(c1ccccc1)c1ccccc1`, the AC50 in data set [5] was 0.794 µM (inconclusive).
In the case of `Cc1ccc(-c2n[nH]cc2/C=N/n2c(C)nc3ccccc3c2=O)cc1`, the concentration giving a half-maximal response (EC50) in data set [6] is > 195 µM (not active).
On the same count and under the same terms, the result for `C/C(Cc1ccccc1)=N\NC(=O)CNC(=O)Cc1ccc(Cl)cc1` reads > 195 µM (not active).
On to `Clc1ccc(/C=N/c2c(-c3ccc(Cl)cc3)nc3n2CCS3)cc1`, for which, in data set [5], the AC50 was 10 µM (inconclusive).
Regarding `[H]/N=C(\N/C(=N/[H])Nc1ccc(Cl)cc1)NC(C)C` [PROGUANIL], the AC50 in data set [3] is 10 µM (inconclusive).

Source of the values: ChEMBL document CHEMBL1201862, “PubChem BioAssay data set” (2004).
